One test deals with HCT-116. Nature of the test: Antiproliferative activity against human HCT116 cells incubated for 48 hrs by MTT assay. The class given is functional, cell-based. The settings on record: HCT-116, 48 h. (In general: Tetrazolium dyes change colour on reduction, which living cells bring about.)
Another test deals with HepG2. Nature of the test: Antiproliferative activity against human HepG2 cells incubated for 48 hrs by MTT assay. The settings on record: HepG2, 48 h. Format: functional, cell-based.
In the next test the test system is MDA-MB-231. The test can be described thus: Antiproliferative activity against human MDA-MB-231 cells incubated for 48 hrs by MTT assay. The class given is functional, cell-based. The settings on record: MDA-MB-231, 48 h.
The next test has as its system HeLa. The test can be described thus: Antiproliferative activity against human HeLa cells incubated for 48 hrs by MTT assay. Format: functional, cell-based.
The next test deals with A549. Nature of the test: Antiproliferative activity against human A549 cells incubated for 48 hrs by MTT assay. The class given is functional, cell-based. The conditions noted are these: A549, 48 h.
A short description of test [1]: Inhibition of porcine brain tubulin polymerization measured every 60 secs for 90 mins by DAPI dye based fluorescence assay. More on the design: species or system Sus scrofa.

This note sets out measurements from ChEMBL document CHEMBL4190378, “Synthesis and evaluation of new 2-chloro-4-aminopyrimidine and 2,6-dimethyl-4-aminopyrimidine derivatives as tubulin polymerization inhibitors” (Bioorg Med Chem Lett, 2018).

Each structure is given as a SMILES string. Bounds are passed on as bounds.

As usually defined, the IC50 is the concentration that inhibits the measured activity by half. Read a high IC50 as weaker potency. Take `COc1ccc(N(C)c2ccnc(Cl)n2)cc1F`: the IC50 was 0.914 µM in the test on HCT-116; 0.844 µM in the test on HepG2; 1.28 µM in the test with MDA-MB-231; 0.241 µM in the test on HeLa; 0.651 µM in the test with A549.
Taken in the same sequence, the figures for `COc1ccc(N(C)c2ccnc(Cl)n2)cc1OCC[Se]C#N` were 1.22 µM, 1.67 µM, 2.75 µM, 0.436 µM and 0.463 µM.
Taken in the same sequence, the figures for `COc1ccc(N(C)c2ccnc(Cl)n2)cc1OCCCBr` were 1.97 µM, 1.24 µM, 1.28 µM, 0.307 µM and 0.862 µM.
For `COc1ccc(N(C)c2cc(C)nc(C)n2)cc1[N+](=O)[O-]`, in that order: 4.67 µM, 2.98 µM, 3.44 µM, 3.72 µM and 3.27 µM.
For `COc1ccc(N(C)c2ccnc(Cl)n2)cc1`, the IC50 with HCT-116 was 1.46 µM; in the test with HepG2 it was 2.12 µM; with MDA-MB-231 it was 2.81 µM; in the test on HeLa, 0.917 µM; in the test with A549, 0.611 µM.
For `COc1ccc(N(C)c2ccnc(Cl)n2)cc1OCCC[Se]C#N`, in that order: 3.92 µM, 5.15 µM, 1.49 µM, 4.71 µM and 3.71 µM.
For `COc1ccc(N(C)c2ccnc(Cl)n2)cc1OCCCCCBr`, in that order: over 10 µM, over 10 µM, over 10 µM, 7.08 µM and 9.71 µM.
Taken in the same sequence, the figures for `COc1ccc(N(C)c2ccnc(Cl)n2)cc1[N+](=O)[O-]` were 4.7 µM, 6.12 µM, 8.12 µM, 4.73 µM and 3.78 µM.
In the case of `COc1ccc(N(C)c2nc(C)nc3ccccc23)cc1` [VERUBULIN], the IC50 in the test on HCT-116 turned out to be 0.005 µM; in test [1] it was 2.74 µM; with HeLa, 0.006 µM; with A549, 0.004 µM.
For the molecule `COc1ccc(N(C)c2ccnc(Cl)n2)cc1Cl`, the IC50 in the test with HCT-116 worked out at 1.17 µM; in the test with HepG2, 2.63 µM; in the test on MDA-MB-231, 1.38 µM; with HeLa it was 0.517 µM; with A549, 0.621 µM.
As for `C[Se]c1ccc(N(C)c2cc(C)nc(C)n2)cc1`, the IC50 with HCT-116 is 0.465 µM; with HepG2 it was 0.198 µM; in the test with MDA-MB-231, 0.321 µM; with HeLa it was 0.138 µM; in the test with A549, 0.218 µM.
Take `COc1ccc(N(C)c2ccnc(Cl)n2)cc1O`: the half-inhibitory concentration (IC50) in the test with HCT-116 was 0.422 µM; in the test on HepG2, 0.464 µM; in the test with MDA-MB-231, 0.833 µM; in test [1], 6.11 µM; with HeLa, 0.096 µM; with A549, 0.381 µM.
For the molecule `COc1ccc(N(C)c2cc(C)nc(C)n2)cc1Cl`, the IC50 in the test on HCT-116 stood at 1.19 µM; in the test with HepG2, 0.787 µM; with MDA-MB-231, 1.9 µM; with HeLa, 0.316 µM; in the test with A549, 0.78 µM.
For `COc1ccc(N(C)c2ccnc(Cl)n2)cc1OCCCCC[Se]C#N`, in that order: over 10 µM, over 10 µM, over 10 µM, over 10 µM and over 10 µM.
With `COc1ccc(N(C)c2ccnc(Cl)n2)cc1OCCCCBr`, the IC50 in the test on HCT-116 was determined as 1.14 µM; in the test on HepG2 it was 0.168 µM; in the test with MDA-MB-231 it was 0.992 µM; with HeLa, 0.307 µM; in the test on A549, 0.591 µM.
For `COc1ccc(N(C)c2ccnc(Cl)n2)cc1OCCCC[Se]C#N`, in that order: over 10 µM, over 10 µM, over 10 µM, over 10 µM and over 10 µM.
Taken in the same sequence, the figures for `Cc1cc(N(C)c2ccc([Se]C#N)cc2)nc(C)n1` were 0.245 µM, 0.155 µM, 0.614 µM, 0.252 µM and 0.207 µM.
For `COc1ccc(N(C)c2ccnc(Cl)n2)cc1OCCBr`, in that order: 5.67 µM, 7.72 µM, 6.62 µM, 3.31 µM and 4.64 µM.
For `COc1ccc(N(C)c2cc(C)nc(C)n2)cc1`, the 50% inhibitory concentration (IC50) came to 1.32 µM with HCT-116; 0.824 µM in the test with HepG2; 3.65 µM in the test with MDA-MB-231; 0.322 µM in the test with HeLa; 0.277 µM with A549.
Taken in the same sequence, the figures for `COc1ccc(N(C)c2cc(C)nc(C)n2)cc1F` were 0.584 µM, 2.06 µM, 2.79 µM, 0.471 µM and 0.632 µM.
